According to US7745424B2, “Alkane diol derivatives as therapeutic agents for the treatment of bone conditions” (The Univeristy Court of the University of Aberdeen, priority 2001, dated 2010):

Assays:
[1] = system: macrophage cell line J774; test: MTT macrophage J774 viability assay; type: cell-based; settings: for IC50: Mus musculus, macrophage J774 viability; for IC50 / macrophage J774 viability, activity in words: MTT assay; for macrophage J774 viability, activity in words: range of concentrations (FIGS. 4-7)
Experimental: MTT (3-(4,5-dimethylthiazol-2-yl)-2,5-diphenyl tetrazolium bromide) has an […] colour and is soluble in the medium used for cell culture. The mitochondrial enzyme succinate dehydrogenase acts upon MTT in living cells to produce the insoluble purple coloured formazan. The amount of formazan produced, as measured by UV/visible spectroscopy, is proportional to the number of viable cells.
The medium was carefully removed using a needle without dislodging the crystal layer. 100 μL acidified isopropanol (4 M HCl 1:100 v/v in isopropanol) was added to each well and the purple crystals allowed to dissolve. The absorbance was measured in a plate reader at 540 nm, with 690 nm as reference. The controls were a deep purple colour, indicating a high number of live cells.
Addition of Compounds. […] These stock solutions were then diluted 100× in culture medium.

[2] = system: macrophage cell line J774; test: Alamar Blue macrophage J774 viability assay; settings: Mus musculus, J774, 72 h, read-out: IC50 (μM) Alamar Blue

Compound	IC50 [1]	IC50 [2]	also measured
CC(=O)OCCCCOC(C)=O [ABD-0006, 1,4-Butanediol di(acetic acid)Ester]	> 100 µM		
CCCC(=O)OCCCCOC(=O)CCC [ABD-0007, 1,4-Butanediol di(butanoic acid)Ester]	> 100 µM		
O=C(OCCCCO)c1ccccc1 [ABD-0008, 1,4-Butanediol mono(benzoic acid)Ester]	> 100 µM		
O=C(OCCCCOC(=O)c1ccccc1)c1ccccc1 [ABD-0009, 1,4-Butanediol di(benzoic acid)Ester]	> 100 µM		
O=C(Cc1ccccc1)OCCCCOC(=O)Cc1ccccc1 [ABD-0014, 1,4-Butanediol di(phenylacetic acid)Ester]	> 100 µM		
O=C(Cc1ccccc1)OCCCCCCOC(=O)Cc1ccccc1 [ABD-0017, 1,6-Hexanediol di(phenylacetic acid)Ester]	> 100 µM		
O=C(OCCCCOC(=O)C1CCCCC1)C1CCCCC1 [ABD-0019, 1,4-Butanediol di(cyclclohexanecarboxylic acid)Ester]	> 100 µM		
O=C(OCCCCO)C(c1ccccc1)(c1ccccc1)c1ccccc1 [ABD-0028, 1,4-Butandiol mono(triphenylacetic acid)Ester]	20 µM	30 µM	macrophage J774 viability, activity in words [1]: more potent
O=C(OCCCCCO)C(c1ccccc1)(c1ccccc1)c1ccccc1 [ABD-0030, 1,5-Pentandiol mono(triphenylacetic acid)Ester]	40 µM		
O=C(OCCCCCCO)C(c1ccccc1)(c1ccccc1)c1ccccc1 [ABD-0031, 1,6-Hexandiol mono(triphenylacetic acid)Ester]	40 µM		
O=C(Cc1cccc2ccccc12)OCCCCO [ABD-0032, 1,4-Butanediol mono(naphth-1-yl-acetic acid)Ester]	> 100 µM		activity at 100 μM concentration [1]: little activity
COc1ccc(CC(=O)OCCCCO)cc1OC [ABD-0033, 1,4-Butanediol mono(homoveratric acid)Ester]	> 100 µM		activity at 100 μM concentration [1]: little activity
O=C(OCCCCO)c1ccc(Cc2ccccc2)cc1 [ABD-0034, 1,4-Butanediol mono(4-benzylbenzoic acid)Ester]	> 100 µM		activity at 100 μM concentration [1]: little activity
CCCCOC(=O)C(C)c1ccc(CC(C)C)cc1 (stereo not drawn) [ABD-0035, Butyl [2-(4-isobutylphenyl)Propionic acid] ester]	72 µM		
CC(C)Cc1ccc(C(C)C(=O)OCCCCO)cc1 (stereo not drawn) [ABD-0036, 1,4-Butanediol mono[2-(4-isobutylphenyl)Propionic acid]ester]	52 µM		macrophage J774 viability, activity in words [1]: most active
CC(C)Cc1ccc(C(C)C(=O)OCCCO)cc1 (stereo not drawn) [ABD-0037, 1,3-Propanediol mono[2-(4-isobutylphenyl)Propionic acid]ester]	72 µM		
CC(C)Cc1ccc(C(C)C(=O)OCCCCCO)cc1 (stereo not drawn) [ABD-0038, 1,5-Pentanediol mono[2-(4-isobutylphenyl)Propionic acid]ester]	68 µM		
CC(C)Cc1ccc(C(C)C(=O)OCCCCCCO)cc1 (stereo not drawn) [ABD-0039, 1,6-Hexanediol mono[2-(4-isobutylphenyl)Propionic acid]ester]	72 µM		
CCCCOC(=O)Cc1ccc(-c2ccccc2)cc1 [ABD-0040, Butyl (biphenyl-4-yl-acetic acid) ester]	> 100 µM		
O=C(Cc1ccc(-c2ccccc2)cc1)OCCCO [ABD-0041, 1,3-Propanediol mono(biphenyl-4-yl-acetic acid)Ester]	75 µM		
O=C(Cc1ccc(-c2ccccc2)cc1)OCCCCO [ABD-0042, 1,4-Butanediol mono(biphenyl-4-yl-acetic acid)Ester]	45 µM	45 µM	macrophage J774 viability, activity in words [1]: very active
O=C(Cc1ccc(-c2ccccc2)cc1)OCCCCCO [ABD-0043, 1,5-Pentanediol mono(biphenyl-4-yl-acetic acid)Ester]	> 100 µM		
O=C(Cc1ccc(-c2ccccc2)cc1)OCCCCCCO [ABD-0044, 1,6-Hexanediol mono(biphenyl-4-yl-acetic acid)Ester]	28 µM		macrophage J774 viability, activity in words [1]: very active
CC(=O)OCCCCOC(=O)c1ccc(-c2ccccc2)cc1 [ABD-0049, Biphenyl-4-carboxylic acid (4-acetoxy)butyl ester]		50 µM	
COCCCCOC(=O)c1ccc(-c2ccccc2)cc1 [ABD-0050, 4-Methoxybutyl (biphenyl-4-carboxylic acid) ester]		> 100 µM	
CCCCOC(=O)c1ccc(-c2ccccc2)cc1 [ABD-0053, Butyl (biphenyl-4-carboxylic acid) ester]	> 100 µM		macrophage J774 viability, activity in words [1]: very little activity

Compound	IC50 [1]	IC50 [2]	also measured
O=C(OCCCCCO)c1ccc(-c2ccccc2)cc1 [ABD-0055, 1,5-Pentanediol mono(biphenyl-4-carboxylic acid)Ester]	65 µM		
O=C(OCCCO)c1ccc(-c2ccccc2)cc1 [ABD-0057, 1,3-Propanediol mono(biphenyl-4-carboxylic acid)Ester]	> 100 µM		
O=C(OCCCCO)c1ccccc1-c1ccccc1 [ABD-0059, 1,4-Butanediol (biphenyl-2-carboxylic acid) ester]	> 100 µM		activity at 100 μM concentration [1]: little activity
O=C(OCCCCO)c1ccc(I)cc1 [ABD-0069, 1,4-Butanediol mono(4-iodobenzoic acid)Ester]		90 µM	
Cc1ccc(-c2ccc(C(=O)OCCCCO)cc2)cc1 [ABD-0070, 1,4-Butanediol mono(4′-methyl-biphenyl-4-carboxylic acid)Ester]		> 100 µM	
O=C(OCCCCO)c1ccc(-c2ccc(O)cc2)cc1 [ABD-0072, 1,4-Butanediol mono(4′-hydroxy-biphenyl-4-carboxylic acid)Ester]		45 µM	
O=C(OCCCCO)c1c(F)c(F)c(F)c(F)c1F [ABD-0077, 1,4-Butanediol mono(pentafluorobenzoic acid)Ester]		25 µM	
O=C(OCCCCOC(=O)c1c(F)c(F)c(F)c(F)c1F)c1c(F)c(F)c(F)c(F)c1F [ABD-0085, 1,4-Butanediol di(pentafluorobenzoic acid)Ester]		4 µM	
O=C(OCCCCBr)c1ccc(-c2ccccc2)cc1 [ABD-0086, 4-Bromobutyl (biphenyl-4-carboxylic acid) ester]		> 100 µM	
O=C(OCCCCO[N+](=O)[O-])c1ccc(-c2ccccc2)cc1 [ABD-0087, 4-Nitrooxybutyl (biphenyl-4-carboxylic acid) ester]		30 µM	
Cc1ccc(-c2ccc(C(=O)OCCCCO)cc2)cc1C [ABD-0089, 1,4-Butanediol mono(3′,4′-dimethyl-biphenyl-4-carboxylic acid)Ester]		9 µM	
CCCCCOC(=O)c1ccc(-c2ccccc2)cc1 [ABD-0090, Pentyl (biphenyl-4-carboxylic acid) ester]		45 µM	
CCc1ccc(-c2ccc(C(=O)OCCCCO)cc2)cc1 [ABD-0094, 1,4-Butanediol mono(4′-ethyl-biphenyl-4-carboxylic acid)Ester]		> 100 µM	
O=C(OCC(F)(F)C(F)(F)CO)c1ccc(-c2ccccc2)cc1 [ABD-0095, 2,2,3,3-Tetrafluoro-butane-1,4-diol mono(biphenyl-4-carboxylic acid)Ester]		40 µM	
COc1ccc(-c2ccc(C(=O)OCCCCO)cc2)cc1 [ABD-0097, 1,4-Butanediol mono(4′-methoxy-biphenyl-4-carboxylic acid)Ester]		> 100 µM	
O=C(OCCCCO)c1ccc(-c2ccccc2[N+](=O)[O-])cc1 [ABD-0098, 1,4-Butanediol mono(2′-nitro-biphenyl-4-carboxylic acid)Ester]		17 µM	
O=C(OCCCCO)c1ccc(-c2ccccc2F)cc1 [ABD-0099, 1,4-Butanediol mono(2′-fluoro-biphenyl-4-carboxylic acid)Ester]		14 µM	
O=C(OCCCCO)c1ccc(-c2ccc(F)cc2)cc1 [ABD-0100, 1,4-Butandiol mono(4′-fluoro-biphenyl-4-carboxylic acid)Ester]		14 µM	
O=C(OCCCCO)c1ccc(-c2ccc(Br)cc2)cc1 [ABD-0102, 1,4-Butanediol mono(4′-bromo-biphenyl-4-carboxylic acid)Ester]		14 µM	
O=C(OCCCCO)c1c(F)ccc(F)c1F [ABD-0106, 1,4-Butanediol mono(2,3,6-trifluorobenzoic acid)Ester]		> 100 µM	
O=C(OCCCCO)c1ccc(F)c(F)c1 [ABD-0107, 1,4-Butanediol mono(3,4-difluorobenzoic acid)Ester]		> 100 µM	
O=C(OCCCCO)c1ccc(F)c(F)c1F [ABD-0108, 1,4-Butanediol mono(2,3,4-trifluorobenzoic acid)Ester]		> 100 µM	
O=C(OCCCCO)c1cc(F)c(F)cc1F [ABD-0109, 1,4-Butanediol mono(2,4,5-trifluorobenzoic acid)Ester]		> 100 µM	
O=C(OCCCCO)c1ccc(F)cc1F [ABD-0110, 1,4-Butanediol mono(2,4-difluorobenzoic acid)Ester]		> 100 µM	
O=C(OCCCCOC(=O)c1ccc(F)cc1F)c1ccc(F)cc1F [ABD-0111, 1,4-Butanediol di(2,4-difluorobenzoic acid)Ester]		> 100 µM	
O=C(O)c1ccc(-c2ccccc2)cc1 [biphenylcarboxylic acid, reference compound]			macrophage J774 viability, activity in words [1]: not active
